{"source": "patent US20250319073A1", "about": "“COMPOSITIONS AND METHODS FOR THE TREATMENT OF HUNTINGTON’S DISEASE AND HTT PROTEINOPATHIES” (priority 2022, published 2025)", "key": {"R6/2 mice": {"system": "R6/2 mice", "experiment": "18F-FDG PET brain glucose uptake in R6/2 mice", "format": "in vivo, mouse", "procedure": "Study Summary—A total of 46 male R6/2 mice and 15 male wild-type littermate control mice (WT) were used in the study. The mice were genotyped and the R6/2 mice were divided into different treatment groups based on their pre-treatment body weight. The treatment with Compound (Ia) (0.5 or 5 mg/kg; 10 ml/kg, intraperitoneally (i.p.), QD) or Vehicle (10 ml/kg, i.p., QD) was started at 4 weeks of age. Body weights were measured before the treatment onset and continued twice a week until the end of the study. Fine motor kinematic analysis and rotarod test were performed at 10 weeks of age and the open field activity and clasping behavior were measured at 12 weeks of age for all mice. At 8 and 12 weeks of age the glucose uptake was measured by ^18F-FDG PET and the striatal metabolites were measured using MR spectroscopy for 9-10 mice per group. At 13 weeks of age 9-10 mice per group were subjected to tissue sample collection, and the brain and blood samples were collected. The blood samples were used to prepare peripheral blood mononuclear cells (PBMCs) on which the flow cytometry/luminescence analysis was performed for following assays: mitochondrial reactive oxygen species (ROS) (MitoSox), and ATP levels (Cell TiterGlow).\n^18F-FDG-PET Analysis—At 8 and 12 weeks of age, 9 mice per group were fasted overnight (water allowed ad libitum) to standardize the blood glucose level. […]"}, "[1]": {"system": "Peripheral Blood Mononuclear Cells (PBMC)", "experiment": "MitoSOX mitochondrial ROS assay (flow cytometry) in PBMCs of treated mice", "format": "in vivo, mouse", "conditions": "R6/2 mice, 0.5 mg/kg / 5 mg/kg i.p. QD, PBMCs collected at 13 weeks of age", "procedure": "Euthanasia & Sample Collection—At 13 weeks of age, 9 mice per group were euthanized by deep anesthesia with sodium pentobarbital (180 mg/kg). The remaining mice were euthanized and any samples were not collected, except the tail and ear samples. A terminal blood sample (as much as possible) was collected by cardiac puncture into a syringe. The whole blood was placed in Li-Hep tube at RT and used immediately for preparation of PBMCs. The whole brain was collected and fresh frozen in liquid nitrogen and stored at −80° C. Blood was collected also from extra animals as staining controls for the flow cytometry assays (n=3 extra animals per day). Tail and ear samples were collected for possible post-study re-genotype analysis. […] Right before measurement 1 μL of propidium iodide was added and the cell number and viability was determined by MACSquant Analyzer 10 flow cytometer. […] The cells were analyzed immediately after the staining using the MACSQuant Analyzer 10 (Miltenyi Biotec) and Cytation 3 (Cell titerglow). […] Oxidation of MitoSOX™ Red reagent by superoxide produces red fluorescence and can be used to reliably the relative differences in mitochondrial ROS formation in cells. […] Concentrations exceeding 5 μM can produce cytotoxic effects, including altered mitochondrial morphology and redistribution of fluorescence to nuclei and the cytosol. • 2. […]"}}}
{"compound": "Cc1cc(O)cc(C)c1C[C@H](NC(=O)[C@H](N)CCCNC(=N)N)C(=O)N[C@@H](CCCCN)c1nc(Cc2ccccc2)no1.Cl.Cl", "note": "[Compound (Ia), (R)-2-amino-N—((S)-1-(((S)-5-amino-1-(3-benzyl-1,2,4-oxadiazol-5-yl)pentyl)amino)-3-(4-hydroxy-2,6-dimethylphenyl)-1-oxopropan-2-yl)-5-guanidinopentanamide]", "values": [{"measurement": "18F-FDG uptake (radioactivity) in olfactory bulb compared to vehicle treated R6/2 mice", "setting": "R6/2 mice; 5 mg/kg i.p. QD, 12 weeks of age, p<0.05, Mixed-effects model (REML)", "result": "statistically significantly higher radioactivity"}, {"measurement": "18F-FDG uptake in various brain areas", "setting": "R6/2 mice; i.p. QD, trend, not statistically significant except olfactory bulb", "result": "increased"}, {"measurement": "mitochondrial ROS formation (MitoSOX) in PBMCs, R6/2+Vehicle vs treated R6/2", "setting": "[1]", "result": "no significant differences"}]}
